For series [1], the system named is rats subjected to chronic restraint stress. The series can be described thus: Sucrose preference test (SPT) after chronic restraint stress (CRS). In kind it is in vivo, rat. The settings on record: 10 days CRS; L-655,708 0.7 mg/kg i.p.; 24 hrs post-injection; vs pre-stress baseline. The text has this:
MRK-016 rapidly reverses loss of sucrose preference and social interaction behaviors after chronic restraint stress (FIG. 9). […] This persisted for 7 days despite further stress exposure. and in the same animals after an additional week of CRS and 7 days after the injection of MRK-016.
Chronic restraint stress (CRS). Male Sprague Dawley rats (4-5 weeks-old; Harlan Laboratories) were placed in appropriately sized restraint tubes, highly restricting their movement for periods of four hours in a brightly lit lab, every day for ten days during the light phase of their diurnal cycle (Lim et al., 2012).
Sucrose preference test (SPT). Rats were given a choice between two bottles containing tap water or a 1% sucrose solution (Rygula et al., 2006). Testing was conducted overnight (16 hours), including the full duration of their dark phase. Animals were first trained with both bottles while group-housed. For subsequent tests, including during the baseline period, animals were individually housed. Sucrose preference was calculated as amount of the sucrose solution consumed as a percentage of the total amount of liquid consumed.
Drugs/stats. L-655,708 was purchased from Tocris Bioscience (R&D Systems, Minneapolis, Minn.) and prepared at a concentration of 5 mM in 75% saline/25% DMSO. […] This dose is sufficient to occupy about 70% of forebrain binding sites (Atack et al., 2005)
Several hedonic behaviors in rodents are sensitive to chronic stress and are restored by chronic, but not acute, administration of SSRIs, providing one means to screen for potential antidepressant compounds. First, it was determined whether L-655,708 would rapidly (<24 hrs) restore normal hedonic behavior following chronic restraint stress (Watanabe et al., 1992; Lim et al., 2012), consistent with the rapid antidepressant-like actions of ketamine (Li et al., 2011). Baseline measurements were first made of social interaction and sucrose preference, and then 4-5 week old rats were subjected to ten days of CRS. […]

Another series has as its system GluA1. The series can be described thus: Western blotting of GluA1 in SLM tissue of hippocampal area CA1. The format is in vivo, rat. The text has this:
Western blotting. SLM tissue punches (1 mm diameter) were dissected from area CA1 in hippocampal slices and pooled (3-4 punches/sample). Membranes were probed with antibodies directed against GluA1 (Millipore Bioscience Research Reagents) and β-actin (Cell Signaling Technology). Levels of proteins are expressed as the ratio of intensity normalized to β-actin intensity, as done previously (Kallarackal et al., 2013).
SLM tissue was harvested from slices taken from unstressed rats, rats subjected to ten days of CRS and given a vehicle injection 24 hrs earlier, and rats subjected to ten days of CRS and given an injection of L-655,708 24 hrs earlier (0.7 mg/kg, i.p.). These were the same rats used for FIG. 6.
A general note: In western blotting, separated proteins are transferred to a membrane and probed.

The test system of another series is rats. The series is described as follows: Open field test (anxiety). Conditions: rat, in vivo. The text has this: C1. One cohort of control rats are given a baseline open field test. One week later, half of the animals receive an injection of L-665,708 or vehicle, followed 24 hrs later by a second open field test in a new arena.
Series [2] has as its system rats subjected to chronic unpredictable stress. The series can be described thus: Sucrose preference test (SPT) after chronic unpredictable stress (CUS). The format is in vivo, rat. The settings on record: L-655,708 24 hours earlier. Here is the method: Sucrose preference test. Rats are administered a sucrose preference test before chronic unpredictable stress or no stress. The left bar of the pairs (black) reflects CUS rats and the right bar of the pairs (white) reflects unstressed rats.
Chronic unpredictable stress (CUS). Male Sprague-Dawley rats (4-5 weeks-old; Harlan Laboratories) were randomly divided into control and CUS groups. Rats in the CUS group were individually housed. CUS animals were treated with two mild stressors every day for 5-6 weeks during their light phase (Willner et al., 1987). The stressors were randomly cycled to enhance unpredictability. The stressors were: forced swim, in which rats were placed in a basin containing cold water for 5 minutes; strobe lighting, in otherwise total darkness for 30 minutes; restraint, during which rats were put into appropriately sized restraint tubes for 30 minutes; exposure to white noise for 30 minutes; and food or water deprivation for 14 hours spanning the dark phase.
Sucrose preference test (SPT). Rats were given a choice between two bottles containing tap water or a 1% sucrose solution (Rygula et al., 2006). Testing was conducted overnight (16 hours), including the full duration of their dark phase. […] Sucrose preference was calculated as amount of the sucrose solution consumed as a percentage of the total amount of liquid consumed.

The subject of series [3] is str. pyramidale of area CA1 and NAc shell. The series can be described thus: In vivo field potential recording of oscillatory activity. Set-up: species or system rat. Here is the method: A1. A 60 min period of continuous recording of spontaneous field potential activity is made under dim illumination. Rats are then injected with either L-665,708 or vehicle, and placed back in the tube for an additional 60-90 min of recording. Discrete fast Fourier transforms are made on 60s-long recording segments for preparation of spectrograms. Oscillation power (area under the curve) is integrated for different frequency bandwidths for power spectral density plots (Θ=3-7 Hz; α=8-12 Hz; β=13-29 Hz; γ=30-80 Hz) (Buhl et al., 1998; Raver et al., 2013). Just as with ketamine (e.g. Kittleberger et al., 2012; Lazarewicz et al., 2010; Hinman et al., 2013), in specific embodiments increases in power are observed by pairwise comparison of spectra before and after drug injection. Initial studies are consistent with this consideration (FIG. 2).
Electrophysiology in vivo. Tungsten microelectrodes (tip impedances=0.5M,Ω) are implanted stereotaxically in str. pyramidale of area CA 1, layer II of the EC, layer V of the medial PFC, or the shell of the NAc and secured to the skull with cement. After implantation, rats will be habituated to stay still under light restraint (a metal pole connecting the headstage to a rigid arm) in a narrow tube. On-going electrical activity will be recorded in the absence of anesthesia. Field potentials will be analyzed using Spike2 software.

Series [4] concerns amnestic properties of the anesthetic etomidate. The settings on record: 0.7 mg/kg i.p.; Martin et al (2009); cited from earlier work.

Structures are written as SMILES. “Also recorded” adds a separate entry of the source.

Results on one compound are retold here after patent US11083732B2, “Use of negative modulators of GABA receptors containing alpha5 subunits as fast acting antidepressants” (University of Maryland, Baltimore, priority 2014, dated 2021).

Turning to `CCOC(=O)c1ncn2c1[C@@H]1CCCN1C(=O)c1cc(OC)ccc1-2` [L-655,708, ethyl (13aS)-7-methoxy-9-oxo-11, 12,13,13 a-terahydro-9H-imidazo[1,5-a]pyrrolo[2,1-c] [1,4]benzodiazepine-1-carboxylate], the sucrose preference entry in series [1] was “not different from their pre-stress baseline”; in series [2], “restores the behavior; also recorded: restored sucrose preference”. Also, the “phosphorylation of S831 of GluA1 in SLM” value in the series with GluA1 (CRS rats, 24 hours after injection) is “increased”. The “GluA1 protein level in SLM (normalized to β-actin)” value with GluA1 (CRS rats, L-655,708 24 hrs earlier) is listed as “not significantly different than levels in unstressed controls; also recorded: increased”. Also, in the series on GluA1 (unstressed animals, 24 hours after injection), the “phosphorylation of S831 and total GluA1 expression in SLM” value was “no effect”. Moreover, the “anxiety in the open field test” value in the series on rats is given as “no evidence of increased anxiety”. For the same compound, the “persistence of increase in oscillatory activity” value in series [3] (CA1 and NAc shell) is given as “persisted for more than one hour”. Further, the “oscillatory activity (theta and beta frequency bands)” value in series [3] (str. pyramidale of area CA1 and NAc shell, after injection) is on record as “rapid increase”. For the same compound, in series [4], the “effect on amnestic properties of etomidate” value is listed as “reverse the amnestic properties”.
